Where “and” joins values, the source holds several entries; their conditions need not be identical. Equal entries are not always repeated.
Assays:
[1] = Stability and protonation constants of Cu(II) complexes by pH-potentiometry and UV-Vis spectrophotometry; assay type: physicochemical; settings: Cu^2+ complex, T = 25 °C, I = 0.15 M NaCl
Procedure: The stability and protonation constants of the metal complexes formed with H2OPC2A were determined by pH-potentiometric titrations, but, for the Cu(II) complex, UV-Vis spectrophotometric measurements were also carried out to supplement the pH-potentiometric titration data (Figures S21 and S22, Supporting Information).
Metal stock solutions were prepared from the highest analytical grade chemicals, and their concentrations were determined by complexometric titration with standardized Na2H2EDTA and eriochrome black T indicator in the presence of ascorbic acid, and potassium hydrogen tartrate for MnCl2, murexide indicator for CaCl2 and CuCl2, eriochrome black T for MgCl2 and xylenol orange in the presence of hexamethylenetetramine for the solution of ZnCl2. The concentration of the ligand stock solution was determined by pH-potentiometric titrations. The protonation constants of the ligand were determined by the pH potentiometric titrations with 0.15 M NaOH, using 0.0025 M ligand solutions. The ionic strength was set to 0.15 M by using NaCl. The titrated samples (starting volume of 6 mL) were stirred mechanically, and thermostated at 25 °C by a circulating water bath (±0.1 °C). […]
To avoid the effect of CO2, N2 gas was bubbled through the solutions during the titrations process. […] For the calibration of the pH meter, KH-phtalate (pH = 4.005) and borax (pH = 9.177) buffers were used, and the H^+ ion concentrations were calculated from the measured pH values by applying the method proposed by Irving et al.. A solution of approximately 0.01 M HCl was titrated with a 0.15 M NaOH solution (0.15 or 1.00 M NaCl), and the differences between the measured and calculated pH values (for the points with pH < 2.4) were used to calculate the (H^+) from the pH values measured in the titration experiments. […] The stability constants of the metal complexes (except for Cu(II)) were determined using the direct pH-potentiometric method, by titrating samples with 1:1 metal-to-ligand ratios (the number of fitted data pairs were between 127–212), allowing 1 min for the sample equilibration to occur. […]

[2] = Metal exchange reactions with Cu(II) followed by UV-Vis as a function of pH; assay type: physicochemical
Procedure: Metal exchange reactions occurring with Cu(II) studied as a function of pH: a more detailed dissociation kinetic study was performed by using the Cu(II) ion. Metal exchange reactions occurring with Cu(II) were followed by UV-Vis as a function of the pH (in the pH range of 3.44–4.97) and metal ion concentration (20- and 40-fold excess of Cu(II) was applied), in order to evaluate the rates of spontaneous (k0 rate constant) and/or proton assisted (k1 rate constant) and/or metal ion provoked dissociation (kM).
As it can be seen in Figure 4, the rate constants (kobs) are proportional to the H^+ ion concentration, while they slightly decrease with the increasing Cu(II) concentration. Therefore, one can assume that [Mn(3,9-OPC2A)] dissociates by following spontaneous (the positive value of the intercept with the y axis) and proton assisted pathways, while Cu(II) is involved in the formation of a dinuclear intermediate with a relatively low stability [Mn(3,9-OPC2A)Cu]^2+, which is a “dead-end” complex (i.e., its formation reduces the concentration of the reactive protonated species, thereby slowing down the reaction). The dissociation pathways followed by [Mn(3,9-OPC2A)] can be accounted for by Equation (1), where [Mn(L)]t is the total concentration of the Mn(II) complex, and the k0, kH, and kM are the rate constants characterizing the spontaneous, the proton and metal ion assisted pathways, respectively. (1) −d[Mn(L)]/dt=kobs[Mn(L)]t=k0[Mn(L)]+kH[Mn(HL)]+kHHMnH2L+kM[Mn(L)Cu]
Using the expressions for the stability and protonation constants of the complexes, and that of the dinuclear intermediate [Mn(L)Cu], one can derive Equation (1) (in this expression k1 = kH × KMnL×H; k2 = kH^H × KMnL×H; × KMnLH×H; k3 = kM × KMnL×Cu; where KMnL×H; and KMnLH×H are the protonation constants of [Mn(3,9-OPC2A)] and KMnL×Cu is the stability constant of the dinuclear [Mn(3,9-OPC2A)Cu]^2+ intermediate, which is used for the fitting of the kobs rate data—the proton assisted dissociation pathways involving a diprotonated intermediate, characterized k2, play a negligible role in the dissociation of the [Mn(3,9-OPC2A)] complex under the experimental conditions used for kinetic studies. (2) kobs=k0+k1H^+/1+KHH^++KMCu^2+
Metal exchange reactions occurring between the complex and Cu(II) (in the presence of a 20- and 40-fold excess, to ensure pseudo-first-order conditions) was investigated at 25 °C and 0.15 M NaCl ionic strength, by using a JASCO V-760 UV-VIS spectrophotometer at 290 nm. […] The values of the pseudo-first-order rate constants (kobs) were determined using the following equation: At = Av + (A0 − Av)e^kobs×t, where At is the absorbance at time t, A0 is the absorbance of the reactants, and Av is the absorbance of the products.

In the case of `O=C(O)CN1CCOCCN(CC(=O)O)Cc2cccc(n2)C1` [H23,9-OPC2A, 6-Oxa-3,9,15-triazabicyclo(9.3.1)pentadeca-1(15),11,13-triene-3,9-diacetic acid], the “log KMnLOH” value [1] is reported as 10.50(5), the “log KMnHL” value ([1]; footnote g) is reported as 1.92(4) ^g and the “log KMnL” value ([1]; footnote g) is reported as 18.41(4) ^g.
With `O=C([O-])CN1CCOCCN(CC(=O)[O-])Cc2cccc(n2)C1.[Mn+2]` [[Mn(3,9-OPC2A)]] the “t1/2 (h) at pH = 7.4” value ([2]; extrapolated to pH = 7.4 from Cu(II) exchange rate constants, calculated with the use of k0 value, cZn(II) = 1 × 10^−5 M) was 21.9 h, the k1 ([2]; proton assisted dissociation, T = 25 °C, I = 0.15 M NaCl) was 2.81 ± 0.07 M⁻¹ s⁻¹ and 2.81 M⁻¹ s⁻¹ and the k0 ([2]; spontaneous dissociation, T = 25 °C, I = 0.15 M NaCl, to be treated as higher limit) was “(8.6 ± 1.1) × 10^−6 s^−1”. The “KML x Cu” value ([2]; stability constant of dinuclear intermediate, T = 25 °C, I = 0.15 M NaCl) was 7 ± 4.

Source: paper PMC8778187, “A New Oxygen Containing Pyclen-Type Ligand as a Manganese(II) Binder for MRI and ^52Mn PET Applications: Equilibrium, Kinetic, Relaxometric, Structural and Radiochemical Studies” (Molecules, 2022)
